US4190661A, “Pyrazolo-quinolines, compositions and pharmaceutical preparations” (Laboratoires Chauvin-Blache, priority 1977, dated 1980)
≈ marks a conversion by molar mass, not a printed value. Read-outs that look alike come from different tables or passages of the source.

How the values were obtained:
Pseudomonas aeruginosa = assay: antibacterial activity in vitro, dilution in liquid medium method (MIC/MBC); type: cell-based; details: read-out: minimum inhibiting concentration (MIC)
Experimental: (§1) The nalidixic acid solution and the solutions containing compounds of the formula (I) were prepared in distilled water with addition of sodium hydroxide.
(§2) The strains used are all obtained from the hospital where they were recently isolated from urinary infections (except Salmonella para B and Listeria which are obtained from a collection):
(§3) Different dilutions of 24 hour cultures in physiological saline were used, depending on the respective growth rate of each germ:
(§4) The test is conducted in phenol red glucose broth inoculated with 0.1 ml of the dilution of the germ studied per 3 ml of broth.
(§5) The bactericidal activity was investigated according to the dilution in liquid medium method.
(§6) After 18 hours in an oven at 37° C., the minimum inhibiting concentration (MIC) corresponding to the last tube whose pH remains unmodified was noted.
(§7) The minimum bactericidal concentration (MBC) was investigated by spreading on a dish of agar medium a dosage of material taken from the tubes which have remained clear. The MBC/24 hrs is the lowest concentration for which the survival rate is zero after a contact time of 24 hours.

Streptococcus foecalis = assay: as above; type: cell-based; details: read-out: minimum inhibiting concentration (MIC)
Experimental: as §1, §2, §3, §4, §5, §6, §7

Proteus mirabilis = assay: as above; type: cell-based; details: read-out: minimum inhibiting concentration (MIC)
Experimental: as §1, §2, §3, §4, §5, §6, §7

Escherichia coli = assay: as above; type: cell-based; details: for MIC: read-out: minimum inhibiting concentration (MIC); for MBC: read-out: minimum bactericidal concentration (MBC)
Experimental: as §1, §2, §3, §4, §5, §6, §7

Klebsiella pneumoniae = assay: as above; type: cell-based; details: read-out: minimum inhibiting concentration (MIC)
Experimental: as §1, §2, §3, §4, §5, §6, §7

Staphylococcus aureus = assay: as above; type: cell-based; details: read-out: minimum inhibiting concentration (MIC)
Experimental: as §1, §2, §3, §4, §5, §6, §7

Salmonella para B = assay: as above; type: cell-based; details: for MIC: read-out: minimum inhibiting concentration (MIC)
Experimental: as §1, §2, §3, §4, §5, §6, §7

Listeria monocytogenes = assay: as above; type: cell-based; details: for MIC: read-out: minimum inhibiting concentration (MIC); for MBC: read-out: minimum bactericidal concentration (MBC)
Experimental: as §1, §2, §3, §4, §5, §6, §7

Enterobacter cloacae = assay: as above; type: cell-based; details: for MIC: read-out: minimum inhibiting concentration (MIC)
Experimental: as §1, §2, §3, §4, §5, §6, §7

Citrobacter = assay: as above; type: cell-based; details: read-out: minimum inhibiting concentration (MIC)
Experimental: as §1, §2, §3, §4, §5, §6, §7

[1] = test system: Enterobacter liquefaciens; assay: as above; type: cell-based; details: for MIC: read-out: minimum inhibiting concentration (MIC)
Experimental: as §1, §2
Enterobacter liquefaciens
as §3, §4, §5, §6, §7

[2] = acute toxicity, graphical method according to Miller and Tainter; details: mouse, in vivo, mice
Description: Indeed, their LD50 values in mice, as determined by the graphical method according to Miller and Tainter are as follows: […]

[3] = Streptococcus foecalis, 18 hours, 37° C.
[4] = Salmonella para B, 18 hours, 37° C.

Compound	MIC (Pseudomonas aeruginosa; 18 hours, 37° C.)	MIC (Streptococcus foecalis; [3])	MIC (Proteus mirabilis; 18 hours, 37° C.)	MIC (Escherichia coli; 18 hours, 37° C.)	MIC (Klebsiella pneumoniae; 18 hours, 37° C.)	MIC (Staphylococcus aureus; 18 hours, 37° C.)	other results
CCn1cc(C(=O)O)c(=O)n2nc3ccccc3c12 [I a, 3-oxo-4-carboxy-6-ethyl-pyrimido[3,2-b]indazole]	> 100 µg/mL	> 100 µg/mL	> 100 µg/mL	> 100 µg/mL	> 100 µg/mL	> 100 µg/mL	MIC (Salmonella para B; [4]): > 100 µg/mL
CCn1cc(C(=O)O)c(=O)c2ccc3[nH]ncc3c21 [I b, 1-ethyl-3-carboxy-4-oxo-pyrazolo[5,4-h]quinoline]	> 100 µg/mL	> 100 µg/mL	> 100 µg/mL	> 100 µg/mL	> 100 µg/mL	> 100 µg/mL	MIC (Salmonella para B; [4]): > 100 µg/mL
CCn1cc(C(=O)O)c(=O)c2c3cn[nH]c3ccc21 [I c, 1-Ethyl-3-carboxy-4-oxo-pyrazolo[4,5-f]quinoline]	> 10 µg/mL	> 10 µg/mL	> 10 µg/mL	> 10 µg/mL	> 10 µg/mL	> 10 µg/mL	
CCn1cc(C(=O)O)c(=O)c2ccc(C)nc21 [Nalidixic acid, nalidixic acid, reference compound]							MIC (Pseudomonas aeruginosa; 18 h): > 200 µg/mL; MIC (Streptococcus foecalis; Streptococcus, 18 h): > 200 µg/mL; MIC (Proteus mirabilis; 18 h): > 200 µg/mL; MIC (Listeria monocytogenes; 18 h): 5 µg/mL (≈ 21.5 µM); MBC (Listeria monocytogenes; 24 h): 100 µg/mL (≈ 431 µM); MIC (Escherichia coli; 18 h): 5 µg/mL (≈ 21.5 µM); MBC (Escherichia coli; 24 h): 100 µg/mL (≈ 431 µM); MIC (Klebsiella pneumoniae; 18 h): > 200 µg/mL; MIC (Staphylococcus aureus; 18 h): > 200 µg/mL; MIC (Salmonella para B; Salmonella, 18 h): 5 µg/mL (≈ 21.5 µM); MBC (Salmonella para B; Salmonella, 24 h, read-out: minimum bactericidal concentration (MBC)): 100 µg/mL (≈ 431 µM); MIC (Enterobacter cloacae; 18 h): 50 µg/mL (≈ 215 µM); MBC (Enterobacter cloacae; 24 h, read-out: minimum bactericidal concentration (MBC)): 100 µg/mL (≈ 431 µM); MIC (Citrobacter; 18 h): > 200 µg/mL; MIC ([1]; Enterobacter, 18 h): 25 µg/mL (≈ 108 µM); MBC ([1]; Enterobacter, 24 h, read-out: minimum bactericidal concentration (MBC)): 100 µg/mL (≈ 431 µM)
CCn1cc(C(=O)O)c(=O)c2c3[nH]ncc3ccc21 [I e]	> 10 µg/mL	> 10 µg/mL	> 10 µg/mL	5 µg/mL (≈ 19.4 µM)	> 10 µg/mL	> 10 µg/mL	MIC (Listeria monocytogenes; 18 hours, 37° C.): 10 µg/mL (≈ 38.9 µM); MBC (Listeria monocytogenes; contact time 24 hours): 100 µg/mL (≈ 389 µM); MBC (Escherichia coli; contact time 24 hours): 100 µg/mL (≈ 389 µM); MIC (Salmonella para B; [4]): > 10 µg/mL; MIC (Enterobacter cloacae; 18 hours, 37° C.): > 10 µg/mL; MIC (Citrobacter; 18 hours, 37° C.): > 10 µg/mL; MIC ([1]; Enterobacter liquefaciens, 18 hours, 37° C.): > 10 µg/mL
CCn1cc(C(=O)O)c(=O)c2c3[nH]ncc3ccc21 [Ie]							LD50 ([2]; ip, intraperitoneal route): 2500 mg/kg; LD50 ([2]; oral route): 4700 mg/kg
C=Cn1cc(C(=O)O)c(=O)c2c3[nH]ncc3ccc21 [I e', 1-Vinyl-3-carboxy-4-oxo-pyrazolo[5,4-f]quinoline]	> 10 µg/mL	> 10 µg/mL	> 10 µg/mL	5 µg/mL (≈ 19.6 µM)	> 10 µg/mL	> 10 µg/mL	MIC (Citrobacter; 18 hours, 37° C.): > 10 µg/mL; LD50 ([2]; ip, intraperitoneal route): 2800 mg/kg; LD50 ([2]; oral route): > 5000 mg/kg

Now from value to molecule, other results behind:

MIC (Pseudomonas aeruginosa; 18 hours, 37° C.)	MIC (Streptococcus foecalis; [3])	MIC (Proteus mirabilis; 18 hours, 37° C.)	MIC (Escherichia coli; 18 hours, 37° C.)	MIC (Klebsiella pneumoniae; 18 hours, 37° C.)	MIC (Staphylococcus aureus; 18 hours, 37° C.)	Compound	other results
> 10 µg/mL	> 10 µg/mL	> 10 µg/mL			> 10 µg/mL	CCn1cc(C(=O)O)c(=O)c2c1ccc1cnn(C)c12 [I f, 1-ethyl-3-carboxy-4-oxo-5-methyl-pyrazolo[5,4-f]uinoline]	
> 10 µg/mL	> 10 µg/mL	> 10 µg/mL			> 10 µg/mL	CCn1cc(C(=O)O)c(=O)c2c3cnn(Cc4ccccc4)c3ccc21 [I d, 1-ethyl-3-carboxy-4-oxo-7-benzyl-pyrazolo[4,5-f]quinoline]	
> 100 µg/mL	> 100 µg/mL	> 100 µg/mL		> 100 µg/mL	> 100 µg/mL	CCn1cc(C(=O)O)c(=O)c2c3nn(C)cc3ccc21 [I g, 1-ethyl-3-carboxy-4-oxo-6-methyl-pyrazolo[3,4-f]uinoline]	
> 10 µg/mL	> 10 µg/mL	> 10 µg/mL		> 10 µg/mL	> 10 µg/mL	CCn1cc(C(=O)O)c(=O)c2ccc3cnn(CC)c3c21 [I h, 1,9-diethyl-3-carboxy-4-oxo-pyrazolo[4,5-h]quinoline]	
